Measurements: patent publication US20220280601A1, “METHOD FOR TREATMENT OF HEPATIC CANCER USING REIC/Dkk-3 GENE IN COMBINATION WITH ANTI-TUMOR AGENT” (Momotaro-Gene Inc., priority 2019, published 2022)

How the values were obtained:
advanced hepatic cancer = details: clinical trials, advanced hepatic cancer (Non-Patent Document 1); cited from earlier work
Huh7 cells = test: MTT cell viability assay, Huh7; format: cell-based; details: 72 hours
Method: (§1) The hepatic cancer cell lines Hep3B and Huh7 (hereafter, referred to as “Hep3B cells” and “Huh7 cells,” respectively, according to need) were purchased from the Japanese Cancer Resources Bank (Tokyo, Japan). The cells were maintained in Dulbecco's Modified Eagle's Medium supplemented with 10% FBS, 1% non-essential amino acid, 1% penicillin/streptomycin, and amphotericin B (0.5 μg/ml). The cells were cultured in accordance with a conventional technique in a humidified 5% CO2 incubator at 37° C. When the cells reached subconfluency, they were pretreated in a medium containing 0.1% dialyzed FBS for 24 hours before experimentation and then subjected to experimentation. […]
(§2) The hepatic cancer cell lines Hep3B and Huh7 were cultured in the presence or absence of Ad-LacZ or Ad-REIC for 72 hours. Cell viability was evaluated via MTT assays. […] Mitochondrial activity reflecting cell viability was evaluated by measuring the absorbance at 570 nm using a microplate reader. […]
(§3) Hep3B cells and Huh7 cells were cultured in the presence or absence of Cisplatin (1 μg/ml) for 72 hours and in the presence or absence of Ad-Lac Z (MOI of 50) or Ad-REIC (MOI of 50). Cell viability was evaluated by the MTT assays described above. […]

[1] = system: mouse hepatocellular cancer cell line Hep1-6 allograft; test: Tumor growth assay in allograft mouse model (Hep1-6), Ad-REIC with Cisplatin; format: in vivo, C57BL/6 mice; details: Ad-REIC 1.0×10^9 pfu intratumorally Days 14, 16, Cisplatin 1 mg/kg intraperitoneally Days 14, 21, control PBS
Text: C57BL/6 female mice (6- to 8-week-old) were purchased from Japan SLC Inc. and maintained with free access to feeds and water in the SPF environment in Okayama University animal experimentation facility. Mice were adapted to the breeding environment over a period of 1 week or longer before the experimentation was initiated. Mice were bred and treated under the strictly controlled conditions in accordance with the guidelines provided by the institutional animal control committee, Okayama University Medical School.
The mouse hepatocellular cancer cell line Hep1-6 ([…], suspended in 200 μl of PBS) were injected into the right flanks of the C57BL/6 mice (Day 0). When the tumor diameters reached 5 to 10 mm, administration of Ad-REIC and Cisplatin was initiated. Ad-REIC (1.0×10^9 pfu) was administered intratumorally on Days 14 and 16. Cisplatin (1 mg/kg) was administered intraperitoneally on Days 14 and 21. Tumor sizes were measured 2 times a week, and tumor volumes were determined.

[2] = system: JNK signal transmission pathway (p-ASK1, p-IRE1α, p-JNK, p-c-Jun) in Huh7 cells; test: Immunoblot analysis of the JNK signal transmission pathway; format: cell-based; details: Huh7, lysates 48 hours after transfection, regardless of the presence or absence of Ad-REIC (MOI of 10)
Method: The mechanism of Ad-REIC for apoptosis induction was examined. By performing immunoblotting, activation of signal transmission molecules in the JNK signal transmission pathway by Ad-REIC and Cisplatin was evaluated. Ad-LacZ and Ad-REIC at MOI of 10 each were transfected into the Hep3B cells and the Huh7 cells, and cell lysates were collected 48 hours thereafter. Protein expression of phospho-ASK1 (p-ASK1), phospho-IRE1α (p-IRE1α), phospho-JNK (p-JNK), and phospho-c-Jun (p-c-Jun) β-actin was analyzed via immunoblotting using specific antibodies. Immunoblotting of β-actin was performed to examine equal loading of proteins in the cells.

Hep3B cells = test: MTT cell viability assay, Hep3B; format: cell-based; details: 72 hours
Method: as §1, §2, §3

Compound | medial survival period (advanced hepatic cancer) | cell viability of Huh7 cells, dependence on amount of Cisplatin (Huh7 cells) | anti-tumor effects (tumor volume) [1] | expression of p-ASK1, p-IRE1α, p-JNK and p-c-Jun (immunoblotting) [2] | cell viability of Hep3B cells, dependence on amount of Cisplatin (Hep3B cells)
CNC(=O)c1cc(Oc2ccc(NC(=O)Nc3ccc(Cl)c(C(F)(F)F)c3)cc2)ccn1 [Sorafenib] | 15.6 months |  |  |  | 
N.N.[Cl][Pt][Cl] [Cisplatin] |  | decreased depending on the amount of Cisplatin administered | the tumor volume was decreased, and anti-tumor effects were observed | each such expression was activated | decreased depending on the amount of Cisplatin administered
